Laboratory results: ChEMBL document CHEMBL5634092, “Design, synthesis, and biological evaluation of novel HDAC/CD13 dual inhibitors for the treatment of cancer” (Eur J Med Chem, 2023)

Key:
[1] = molecular target: T1, Aminopeptidase N (Sus scrofa, UniProt P15145); experiment: Inhibition of porcine kidney CD13 using L-leucine-p-nitroanilide as substrate incubated for 30 mins by microplate reader analysis
T1 sequence (P15145 whole entry): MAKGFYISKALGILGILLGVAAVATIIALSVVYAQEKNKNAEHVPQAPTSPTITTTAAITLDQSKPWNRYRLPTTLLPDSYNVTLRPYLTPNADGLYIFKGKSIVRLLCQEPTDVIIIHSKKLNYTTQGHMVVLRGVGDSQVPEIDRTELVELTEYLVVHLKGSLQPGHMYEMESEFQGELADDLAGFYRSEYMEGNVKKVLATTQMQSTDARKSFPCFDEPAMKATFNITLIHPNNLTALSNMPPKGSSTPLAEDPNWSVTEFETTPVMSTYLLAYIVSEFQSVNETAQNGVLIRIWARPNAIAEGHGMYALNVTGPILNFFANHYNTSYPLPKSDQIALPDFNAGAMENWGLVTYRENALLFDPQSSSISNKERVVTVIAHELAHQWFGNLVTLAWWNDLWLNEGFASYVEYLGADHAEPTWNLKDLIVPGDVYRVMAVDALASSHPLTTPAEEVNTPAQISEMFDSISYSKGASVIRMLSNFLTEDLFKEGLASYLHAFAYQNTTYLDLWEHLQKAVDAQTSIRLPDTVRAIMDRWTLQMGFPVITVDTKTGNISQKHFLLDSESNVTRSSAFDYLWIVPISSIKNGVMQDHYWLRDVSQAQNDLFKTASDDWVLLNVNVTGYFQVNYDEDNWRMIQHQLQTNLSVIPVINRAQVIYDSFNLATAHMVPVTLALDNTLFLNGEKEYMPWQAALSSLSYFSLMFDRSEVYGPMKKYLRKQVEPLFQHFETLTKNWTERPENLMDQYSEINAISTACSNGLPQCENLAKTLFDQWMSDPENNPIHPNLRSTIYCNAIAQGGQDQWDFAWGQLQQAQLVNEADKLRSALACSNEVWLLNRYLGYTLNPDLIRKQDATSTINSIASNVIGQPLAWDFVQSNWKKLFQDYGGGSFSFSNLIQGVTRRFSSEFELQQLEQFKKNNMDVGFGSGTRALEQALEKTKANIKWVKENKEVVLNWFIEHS

[2] = molecular target: Histone deacetylase 3 (Homo sapiens, UniProt O15379); experiment: Inhibition of human HDAC3 using Boc-Lys (acetyl)-AMC as substrate incubated for 1 hr followed by substrate addition and further incubated for 2 hrs by fluorescence assay
Chain of Histone deacetylase 3 (O15379 whole entry): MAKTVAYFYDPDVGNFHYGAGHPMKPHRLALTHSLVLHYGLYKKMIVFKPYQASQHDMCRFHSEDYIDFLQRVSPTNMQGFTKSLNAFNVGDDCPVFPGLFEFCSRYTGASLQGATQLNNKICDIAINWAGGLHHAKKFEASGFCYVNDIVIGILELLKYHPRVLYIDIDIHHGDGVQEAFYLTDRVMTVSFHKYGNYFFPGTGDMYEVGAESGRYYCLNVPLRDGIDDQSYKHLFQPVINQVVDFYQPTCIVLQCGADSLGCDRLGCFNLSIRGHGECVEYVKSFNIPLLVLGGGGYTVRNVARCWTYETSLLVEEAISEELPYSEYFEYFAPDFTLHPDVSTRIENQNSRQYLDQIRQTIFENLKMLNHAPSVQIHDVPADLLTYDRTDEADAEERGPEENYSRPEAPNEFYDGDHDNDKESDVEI

[3] = molecular target: Histone deacetylase 1 (Homo sapiens, UniProt Q13547); experiment: Inhibition of human HDAC1 using Boc-Lys (acetyl)-AMC as substrate incubated for 1 hr followed by substrate addition and further incubated for 2 hrs by fluorescence assay
Chain of Histone deacetylase 1 (Q13547 whole entry): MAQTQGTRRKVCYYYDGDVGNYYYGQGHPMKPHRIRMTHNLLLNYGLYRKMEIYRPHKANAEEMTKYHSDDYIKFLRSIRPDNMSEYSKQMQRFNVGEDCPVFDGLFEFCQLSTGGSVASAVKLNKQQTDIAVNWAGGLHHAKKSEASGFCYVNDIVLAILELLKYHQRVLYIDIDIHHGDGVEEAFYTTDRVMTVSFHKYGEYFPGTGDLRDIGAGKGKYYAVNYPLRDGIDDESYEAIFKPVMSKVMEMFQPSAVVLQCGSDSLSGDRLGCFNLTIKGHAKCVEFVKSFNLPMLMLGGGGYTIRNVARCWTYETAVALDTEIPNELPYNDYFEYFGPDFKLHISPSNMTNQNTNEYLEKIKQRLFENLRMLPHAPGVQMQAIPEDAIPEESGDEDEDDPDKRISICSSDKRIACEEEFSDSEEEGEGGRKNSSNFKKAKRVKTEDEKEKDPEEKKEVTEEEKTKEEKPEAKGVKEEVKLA

[4] = molecular target: Histone deacetylase 2 (Homo sapiens, UniProt Q92769); experiment: Inhibition of human HDAC2 using Boc-Lys (acetyl)-AMC as substrate incubated for 1 hr followed by substrate addition and further incubated for 2 hrs by fluorescence assay
Chain of Histone deacetylase 2 (Q92769 whole entry): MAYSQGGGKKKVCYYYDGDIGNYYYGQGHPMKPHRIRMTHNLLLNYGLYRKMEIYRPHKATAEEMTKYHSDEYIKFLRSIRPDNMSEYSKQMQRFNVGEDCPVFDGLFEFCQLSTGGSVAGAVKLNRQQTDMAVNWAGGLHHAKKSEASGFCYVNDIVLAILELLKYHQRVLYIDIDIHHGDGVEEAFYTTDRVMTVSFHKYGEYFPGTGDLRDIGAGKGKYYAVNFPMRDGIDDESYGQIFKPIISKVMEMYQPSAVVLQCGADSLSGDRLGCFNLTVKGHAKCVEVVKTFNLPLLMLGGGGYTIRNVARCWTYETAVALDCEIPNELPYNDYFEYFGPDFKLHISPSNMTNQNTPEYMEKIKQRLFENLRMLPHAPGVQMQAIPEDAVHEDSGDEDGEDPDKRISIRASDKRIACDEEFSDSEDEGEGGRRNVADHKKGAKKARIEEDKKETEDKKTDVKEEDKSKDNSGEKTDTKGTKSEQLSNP

[5] = test system: MV4-11; experiment: Antiproliferative activity against human MV4-11 cells incubated for 48 hrs by resazurin based microplate reader analysis; details: MV4-11, 48 h
[6] = molecular target: Aminopeptidase N (Homo sapiens, UniProt P15144); experiment: Inhibition of human CD13 using L-leucine-p-nitroanilide as substrate incubated for 30 mins by microplate reader analysis
Chain of Aminopeptidase N (Homo sapiens, UniProt P15144) (P15144 whole entry): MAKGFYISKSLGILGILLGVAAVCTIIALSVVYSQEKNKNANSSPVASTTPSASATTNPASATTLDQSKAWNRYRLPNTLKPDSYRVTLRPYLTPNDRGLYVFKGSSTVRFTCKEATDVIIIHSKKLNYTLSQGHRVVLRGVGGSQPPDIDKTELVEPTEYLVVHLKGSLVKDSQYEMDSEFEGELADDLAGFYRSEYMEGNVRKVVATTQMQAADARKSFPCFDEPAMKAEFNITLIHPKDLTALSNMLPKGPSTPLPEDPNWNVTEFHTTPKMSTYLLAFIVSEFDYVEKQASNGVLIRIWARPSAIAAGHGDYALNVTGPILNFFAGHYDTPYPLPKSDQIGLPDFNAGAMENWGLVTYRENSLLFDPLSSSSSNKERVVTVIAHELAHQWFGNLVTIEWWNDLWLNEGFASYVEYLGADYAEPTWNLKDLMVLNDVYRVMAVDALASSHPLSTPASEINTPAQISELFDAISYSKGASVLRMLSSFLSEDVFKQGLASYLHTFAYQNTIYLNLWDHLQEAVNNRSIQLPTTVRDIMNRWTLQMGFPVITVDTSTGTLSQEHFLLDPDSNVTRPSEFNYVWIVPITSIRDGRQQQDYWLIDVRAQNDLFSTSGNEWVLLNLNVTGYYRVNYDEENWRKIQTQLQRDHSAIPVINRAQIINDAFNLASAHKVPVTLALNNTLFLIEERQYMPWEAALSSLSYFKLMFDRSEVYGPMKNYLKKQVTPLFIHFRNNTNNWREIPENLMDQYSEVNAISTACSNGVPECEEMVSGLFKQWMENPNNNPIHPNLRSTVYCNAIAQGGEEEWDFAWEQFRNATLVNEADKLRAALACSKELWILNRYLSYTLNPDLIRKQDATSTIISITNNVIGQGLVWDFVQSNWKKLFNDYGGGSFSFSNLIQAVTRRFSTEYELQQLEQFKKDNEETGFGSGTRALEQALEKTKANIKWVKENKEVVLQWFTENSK

[7] = test system: JeKo-1; experiment: Antiproliferative activity against human JeKo-1 cells incubated for 48 hrs by resazurin based microplate reader analysis; details: JeKo-1, 48 h
[8] = Cytotoxicity against human HL7702 cells incubated for 48 hrs by resazurin based microplate reader analysis; details: HL7702 (L02) cells
[9] = test system: K562; experiment: Antiproliferative activity against human K562 cells incubated for 48 hrs by resazurin based microplate reader analysis; details: K562, 48 h
[10] = test system: HL-60; experiment: Antiproliferative activity against human HL-60 cells incubated for 48 hrs by resazurin based microplate reader analysis; details: HL-60, 48 h
[11] = test system: BXPC-3; experiment: Antiproliferative activity against human BXPC-3 cells incubated for 48 hrs by resazurin based microplate reader analysis; details: BXPC-3, 48 h
[12] = test system: A549; experiment: Antiproliferative activity against human A549 cells incubated for 48 hrs by resazurin based microplate reader analysis; details: A549, 48 h
[13] = test system: MV4-11; experiment: Induction of apoptosis in human MV4-11 cells assessed as apoptotic rate at 2 uM incubated for 24 hrs by Annexin V-FITC staining based flow cytometry (reference value: 24.09 %); assay type: functional
[14] = test system: A549; experiment: Induction of apoptosis in human A549 cells assessed as apoptotic rate at 20 uM incubated for 24 hrs by Annexin V-FITC staining based flow cytometry (reference value: 8.02 %); assay type: functional
[15] = molecular target: T2, Protein deacetylase HDAC6 (Homo sapiens, UniProt Q9UBN7); experiment: Inhibition of human HDAC6 using Boc-Lys (acetyl)-AMC as substrate incubated for 1 hr followed by substrate addition and further incubated for 2 hrs by fluorescence assay
T2 sequence (Q9UBN7 whole entry): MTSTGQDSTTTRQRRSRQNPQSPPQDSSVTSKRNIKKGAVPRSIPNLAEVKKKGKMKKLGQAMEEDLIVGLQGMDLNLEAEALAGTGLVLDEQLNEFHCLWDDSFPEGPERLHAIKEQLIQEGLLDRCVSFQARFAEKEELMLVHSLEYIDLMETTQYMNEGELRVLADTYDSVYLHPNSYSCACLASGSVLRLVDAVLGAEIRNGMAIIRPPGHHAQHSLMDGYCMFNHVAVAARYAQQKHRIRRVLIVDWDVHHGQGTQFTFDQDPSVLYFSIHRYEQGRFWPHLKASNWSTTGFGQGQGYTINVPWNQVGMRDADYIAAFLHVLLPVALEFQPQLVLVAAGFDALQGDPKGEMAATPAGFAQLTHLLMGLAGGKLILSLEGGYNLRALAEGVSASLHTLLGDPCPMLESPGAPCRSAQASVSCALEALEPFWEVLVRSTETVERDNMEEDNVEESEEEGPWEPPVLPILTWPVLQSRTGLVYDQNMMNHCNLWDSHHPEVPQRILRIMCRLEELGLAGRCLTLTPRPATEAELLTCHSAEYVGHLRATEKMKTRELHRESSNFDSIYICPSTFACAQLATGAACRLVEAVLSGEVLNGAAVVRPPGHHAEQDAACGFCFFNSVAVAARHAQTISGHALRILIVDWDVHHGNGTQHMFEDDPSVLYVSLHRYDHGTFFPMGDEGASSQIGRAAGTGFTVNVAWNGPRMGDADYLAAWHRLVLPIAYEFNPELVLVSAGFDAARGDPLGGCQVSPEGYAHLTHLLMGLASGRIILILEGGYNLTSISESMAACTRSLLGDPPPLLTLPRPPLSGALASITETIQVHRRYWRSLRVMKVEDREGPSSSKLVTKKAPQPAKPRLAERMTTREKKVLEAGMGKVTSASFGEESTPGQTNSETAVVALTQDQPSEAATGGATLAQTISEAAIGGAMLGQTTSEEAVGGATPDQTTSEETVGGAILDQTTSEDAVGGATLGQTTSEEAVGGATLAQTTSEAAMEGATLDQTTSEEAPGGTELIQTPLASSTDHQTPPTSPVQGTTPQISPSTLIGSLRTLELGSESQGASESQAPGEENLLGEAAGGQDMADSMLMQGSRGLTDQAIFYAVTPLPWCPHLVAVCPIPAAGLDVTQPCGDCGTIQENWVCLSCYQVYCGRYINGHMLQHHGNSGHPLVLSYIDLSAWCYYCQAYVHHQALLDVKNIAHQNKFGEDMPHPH

[16] = molecular target: T3, Histone deacetylase 8 (Homo sapiens, UniProt Q9BY41); experiment: Inhibition of human HDAC8 using Boc-Lys (tri-fluoroacetyl)-AMC as substrate incubated for 1 hr followed by substrate addition and further incubated for 2 hrs by fluorescence assay
T3 sequence (Q9BY41 whole entry): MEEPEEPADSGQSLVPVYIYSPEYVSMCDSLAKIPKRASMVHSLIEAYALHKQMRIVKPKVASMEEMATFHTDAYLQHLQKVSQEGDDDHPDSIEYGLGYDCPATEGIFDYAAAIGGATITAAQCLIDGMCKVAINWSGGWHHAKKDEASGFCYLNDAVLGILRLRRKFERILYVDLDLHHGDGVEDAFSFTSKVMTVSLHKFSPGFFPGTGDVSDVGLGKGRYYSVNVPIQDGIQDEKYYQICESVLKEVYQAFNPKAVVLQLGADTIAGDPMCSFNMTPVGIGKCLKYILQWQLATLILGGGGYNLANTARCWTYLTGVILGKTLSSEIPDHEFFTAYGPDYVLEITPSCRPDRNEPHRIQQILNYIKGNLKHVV

SMILES | IC50 [1] | IC50 [2] | also measured
CCCNNC(=O)[C@H](CC(C)C)NC(=O)[C@@H](O)[C@H](N)Cc1ccccc1 | 18200 nM | > 10000 nM | IC50 [3]: > 10000 nM; IC50 [4]: > 10000 nM; IC50 [5]: > 20000 nM
CCCNNC(=O)c1ccc(CNC(=O)[C@H](CC(C)C)NC(=O)[C@H](O)[C@@H](N)Cc2ccccc2)cc1 | > 20000 nM | 60 nM | IC50 [6]: > 20000 nM
CCCNNC(=O)c1ccc(CNC(=O)[C@H](CC(C)C)NC(=O)NCc2cccc3ccccc23)cc1 | > 20000 nM | 120 nM | –
CCCNNC(=O)c1ccc(CNC(=O)[C@H](CC(C)C)NC(=O)Nc2c(C)cccc2C)cc1 | > 20000 nM | 290 nM | –
CCCNNC(=O)CCCCCCNC(=O)[C@H](CC(C)C)NC(=O)[C@@H](O)[C@H](N)Cc1ccccc1 | 9530 nM | 50 nM | –
CC(C)C[C@H](NC(=O)[C@@H](O)[C@H](N)Cc1ccccc1)C(=O)O [UBENIMEX] | – | > 10000 nM | IC50 [3]: > 10000 nM; IC50 [4]: > 10000 nM; IC50 [5]: > 20000 nM
O=C(CCCCCCC(=O)Nc1ccccc1)NO [VORINOSTAT] | > 20000 nM | – | –

Continued by falling IC50 [1], values first:

IC50 [1] | IC50 [2] | SMILES | also measured
3030 nM | 90 nM | CCCNNC(=O)CCCCCNC(=O)[C@H](CC(C)C)NC(=O)[C@@H](O)[C@H](N)Cc1ccccc1 | –
2690 nM | – | CCCNNC(=O)c1ccc(CNC(=O)[C@H]2CCCN2C(=O)[C@H](CC(C)C)NC(=O)[C@@H](O)[C@H](N)Cc2ccccc2)cc1 | –
1630 nM | 60 nM | CC(C)C[C@H](NC(=O)[C@@H](O)[C@H](N)Cc1ccccc1)C(=O)NCc1ccc(C(=O)Nc2ccccc2N)cc1 | –
1350 nM | 2420 nM | COC(=O)c1ccc(CNC(=O)[C@H](CC(C)C)NC(=O)[C@@H](O)[C@H](N)Cc2ccccc2)cc1.Cl | IC50 [7]: > 20000 nM; IC50 at 48 h [8]: > 100000 nM; IC50 [6]: 480 nM; IC50 [3]: > 10000 nM; IC50 [4]: > 10000 nM; IC50 [5]: > 20000 nM; IC50 [9]: > 20000 nM; IC50 [10]: > 20000 nM; IC50 [11]: > 20000 nM; IC50 [12]: > 20000 nM; Activity [13]: 33.7%; Activity [14]: 8.31%
550 nM | 1430 nM | CC(C)C[C@H](NC(=O)[C@@H](O)[C@H](N)Cc1ccccc1)C(=O)NCc1ccc(C(=O)NO)cc1 | IC50 [15]: 330 nM; IC50 [16]: 1350 nM
400 nM | 80 nM | CCCNNC(=O)c1ccc(CNC(=O)[C@H](CC(C)C)NC(=O)[C@@H](NC(=O)[C@@H](O)[C@H](N)Cc2ccccc2)[C@@H](C)CC)cc1 | –
